The values below come from publication PMC11032351, “Epigenetic modulation through BET bromodomain inhibitors as a novel therapeutic strategy for progranulin-deficient frontotemporal dementia” (Scientific Reports, 2024).

Read-outs that look alike come from different tables or passages of the source.

For orientation: Cmax means the maximum level reached in the sampled fluid or tissue. A word on the MRT inf: it is a mean duration of stay, worked out from the concentration-time curve. Broadly, the Tmax is the time at which the peak concentration occurs. As usually defined, the AUC(0-t) is exposure summed from dosing to a finite time, without extrapolation to infinity. Read a low AUC(0-t) as low exposure. The term clearance denotes the rate of elimination divided by the concentration. Higher therefore signals efficient removal. For orientation: Kd means the free concentration of one partner at which half of the binding sites on the other are occupied at equilibrium, for simple one-to-one binding.

The nature of data set [1]: Pharmacokinetics in CD-1 mice, IV. Format: in vivo. The conditions noted are these: for Auclast / Cmax / MRT inf / Tmax / half-life / AUC(0-t) / clearance / Vd: intravenously 5 mg/kg; for blood–brain barrier crossing (in words) / clearance (in words): IV 5 mg/kg; for Cmax / MRT inf / Tmax / half-life / AUC(0-t) / clearance / Vd: male, mouse, iv; for half-life: read-out: Terminal t1/2; for Vd: read-out: Vss. As to the method:
Analysis of pharmacokinetic parameters of 18A and 18B was performed by the Preclinical Pharmacology Core Lab (UT Southwestern Medical Center). Animal work described in this manuscript has been approved and conducted under the oversight of the UT Southwestern Institutional Animal Care and Use Committee and were carried out in accordance with relevant guidelines and regulations. UT Southwestern uses the “Guide for the Care and Use of Laboratory Animals” when establishing animal research standards. All methods are reported in accordance with ARRIVE guidelines. Compounds were suspended in 10% DMSO/20% PEG400/70% (30% HPβCD in water) at 0.484 mg/mL (18A) or at 0.5 mg/mL (18B). Compounds were administered to male CD1 mice (Charles River Laboratories, Wilmington, MA) IV via the tail vein at 5 mg/kg (0.30 mL dose volume for 18A, 0.35 mL dose volume for 18B). Mice were randomly assigned to time point groups and all investigators were aware of these assignments. After inhalation overdose of CO2, blood and tissues were collected from three mice per timepoint, at 5, 15, 30, 60, 240, 360, and 480 min post dosing, such that a mean concentration and standard deviation about the mean could be reported. Blood and tissues were also collected from mice dosed with Vehicle only at 480 min. Blood was collected using the anticoagulant ACD (acidified citrate dextrose) and plasma was isolated from the blood by centrifugation at 4 °C, 9600 × g for 10 min. After rinsing with PBS, tissues were weighed, snap-frozen in liquid nitrogen and stored at − 80 °C until processing. Brain was homogenized in a three-fold volume of PBS (weight by volume). Plasma and brain homogenates were extracted using a two-fold volume of methanol containing 0.15% formic acid and 37.5 ng/ml of an internal standard, n-benzylbenzamide (Sigma, St. Louis, MO). Samples were vortexed for 15 s, incubated at RT for 10 min and then centrifuged at 16,100 × g for 5 min at 4 °C. The supernatant was spun a second time and then analyzed by LC–MS/MS using a Sciex (Framingham, MA) 4000QTRAP® (positive ESI, multiple-reaction monitoring mode) after separation on an Agilent (Santa Clara, CA) C18 XDB column (5 micron packing, 50 × 4.6 mm size). The following separation gradient was used (Buffer A: water with 0.1% formic acid; Buffer B: MeOH with 0.1% formic acid): 0–1 min 5% B, 1–1.5 min gradient to 100% B, 1.5–3 min 100% B, 3–3.2 min gradient to 5% B, 3.2–4.5 min 5% B. For 18A, the transition (m/z) of 336.0/305.0 was monitored (retention time: 2.08 min); for 18B, the transition (m/z) of 336.1/169.0 was monitored (retention time: 2.09 min). The transition 212.1/91.1 (retention time 2.05 min) was monitored for the internal standard, n-benzylbenzamide. Tissues and plasma from untreated mice were used as controls to establish background noise for LC–MS/MS analysis of compound levels. Pharmacokinetic parameters were calculated using sparse sampling and the noncompartmental analysis tool in WinNonlin (Certara Corp, Princeton, NJ) for plasma and brain. Because mice were not perfused prior to collection of brain, the amount of compound estimated to be in the vasculature of the brain was subtracted using the measured plasma concentration and literature values for the volume of residual blood (30 µl/g tissue) in the brain Kwon[102].

The subject of another data set is PGRN-Luc. Nature of the data set: HMC3 PGRN-luciferase reporter assay. Format: cell-based, human. Conditions: HMC3 PGRN-Luc cells, 8 h of treatment. The protocol:
HMC3 PGRN-Luc cells were trypsinized from confluent T-75 flasks and re-suspended in HMC-3 media at 150,000–200,000 cells/mL. 30 µL of cell suspension was then seeded onto each well of black, 384-well clear-bottom plates (Corning 3712) using the Multidrop Combi (Thermo Fisher). Cells were allowed to adhere to plates in the incubator at 37 °C/5% CO2 for 6–8 h. After 6–8 h, compounds were added to each well using the D300e (Tecan) compound dispenser, and all wells were DMSO-normalized (0.3%). Cells were allowed to incubate with compounds for indicated timeframes.
Plates were removed from the incubator and allowed to cool to RT. 15 µL of media was removed from each well using a multichannel pipette and added to separate Corning 3712 plates for a read of “secreted” PGRN. To both the media-containing plates as well as the cell-containing plates (with 15 µL media remaining) is then added 15 µL of active luminescence reagent (Thermo 18,636) which was generated according to manufacturer’s instructions. Plates were allowed to nutate at RT for 15 min prior to reading using the EnVision (PerkinElmer). For calculation of the internal PGRN-Luc signal, the secreted signal (15 µL media) was subtracted from the signal of the cell-containing plates (with 15 µL media remaining). For “total” PGRN-Luc signal, a sample of media was not aliquoted into a separate plate, and instead, 30 µL of active luminescence reagent was added directly to each well.
For the mivebresib and panobinostat time-course experiment, the above procedure was followed, with the exception that cells were seeded at 66,600 cells/mL in 30 µL media, and allowed to grow overnight prior to compound addition for the indicated timeframes.
In general terms: A reporter such as luciferase makes a cellular process visible.

A further data set relates to BRD4 protein levels. Description: Immunoblotting of BRD4 in human NPCs. Format: cell-based. The conditions noted are these: co-treatment with MLN-4924 (1 µM) and mivebresib (1 µM). A general note: In western blotting, separated proteins are transferred to a membrane and probed.
The next data set addresses recombinant BRD4 BD2. More on the design: method as in PMID 31969702, PMID 32193360, doi:10.1002/anse.202200020. The conditions noted are these: read-out: KD against recombinant BRD4 BD2; cited from earlier work.

Description for BRD4 protein levels: Gels were then transferred onto PVDF membranes (Immobilon-P, Millipore IPVH00010). […] Membranes were washed with TBST for 1 h, and developed with the chemiluminescence reagents used above.
NPCs were cultured normally in 6-well plates as described previously. […] Plates returned to the incubator. […] Plates returned to the incubator. After 4 h, to the indicated wells is directly added 1 µL 2 mM mivebresib (MedChem Express HY-100015) in DMSO for a final concentration of 1 µM, or 1 µL DMSO. All plates were returned to the incubator overnight. […] 200 µL of supernatant was then transferred to a fresh, labeled Eppendorf rube, which was then stored at − 20 °C prior to further analysis. Sample concentration was quantified using the BCA assay as described above, and normalized to 250 µg/mL in M-PER lysis buffer prior to PGRN quantification using the Jess.

In the case of `Cn1cc(-c2cccnc2Oc2ccc(F)cc2)c2cc[nH]c2c1=O` [Compound 18A, 4-(2-(4-fluorophenoxy)pyridin-3-yl)-6-methyl-1H-pyrrolo[2,3-c]pyridin-7(6H)-one], in data set [1] (Brain), the Auclast came out at 63285 ng·min/g, the highest concentration (Cmax) is 2970 ng/g, the mean residence time (MRT inf) is 16.7 min and the Tmax is 5 min. Also, the half-life in data set [1] (Brain) was 30 min. For the same compound, in data set [1], the “blood–brain barrier crossing (in words)” value is given as “readily cross the blood–brain barrier” and the “clearance (in words)” value is reported as “cleared quite rapidly”. In data set [1] (Plasma), the area under the curve AUC(0-t) is 658 ng·h/mL, the peak level (Cmax) was 1780 ng/mL, the mean residence time MRT inf is 17.9 min and the time of peak concentration (Tmax) is 5 min. Moreover, in data set [1] (Plasma), the clearance was 3.67 mL/min, the half-life was 27 min and the Vd is 0.067 L.

As to `CCS(=O)(=O)Nc1ccc(Oc2ccc(F)cc2F)c(-c2cn(C)c(=O)c3[nH]ccc23)c1` [mivebresib], the “total (combined internal and secreted) PGRN-Luc signal” value in the data set with PGRN-Luc is “to the same extent as did panobinostat”. Also, the “enhancement of BRD4 protein levels” value with BRD4 protein levels is recorded as “~ fourfold”. Moreover, the Kd at recombinant BRD4 BD2 is not above 2 nM.

As for `Cn1ccc2c(-c3cccnc3Oc3ccc(F)cc3)c[nH]c2c1=O` [Compound 18B, 3-[2-(4-fluorophenoxy)pyridin-3-yl]-6-methyl-1,6-dihydro-7H-pyrrolo[2,3-c]pyridin-7-one], in data set [1] (Brain), the Auclast turned out to be 31579 ng·min/g, the highest concentration (Cmax) worked out at 1690 ng/g, the mean residence time (MRT inf) is 17.6 min and the Tmax was 5 min. In addition, in data set [1] (Brain), the half-life was found to be 73 min. Besides, in data set [1], the “blood–brain barrier crossing (in words)” value is on record as “readily cross the blood–brain barrier” and the “clearance (in words)” value is “cleared quite rapidly”. For the same compound, in data set [1] (Plasma), the exposure AUC(0-t) was 511 ng·h/mL, the concentration peaked (Cmax) at 1620 ng/mL, the mean residence time (MRT inf) is 25.8 min and the Tmax is 5 min. In data set [1] (Plasma), the clearance turned out to be 5.61 mL/min, the half-life amounted to 140 min and the Vd amounted to 0.145 L.
